# Assay results: patent publication US12180226B2, “Spirotricycle RIPK1 inhibitors and methods of uses thereof” (Merck Sharp & Dohme LLC, priority 2021, dated 2024)
# Counter-ions that a name gives are not always drawn.
# Target: RIPK1 (recombinant GST-RIPK1 kinase domain, residues 1-327) (Homo sapiens (Human), UniProt Q13546)
# Assay: RIPK1-ADP-Glo Enzymatic Assay
# Assay type: biochemical
# Settings: ADP-Glo; 25 nM GST-RIPK1, 300 μM ATP; assay lower limit ~25 nM; read-out: RIPK1 V0 Ec50
# Experimental: RIPK1-ADP-Glo Enzymatic Assay
# The enzymatic activity of RIPK1 is measured using an assay derived from ADP-Glo kit (TMPromega), which provides a luminescent-based ADP detection system. Specifically, the ADP generated by RIPK1 kinase is proportionally detected as luminescent signals in a homogenous fashion. In this context, the assessment of the inhibitory effect of small molecules (EC50) is measured by the effectiveness of the compounds to inhibit the ATP to ADP conversion by RIPK1.
# In this assay, the potency (EC50) of each compound was determined from a ten-point (1:3 serial dilution; top compound concentration of 100000 nM) titration curve using the following outlined procedure. The assay bottom or lower limit of confidence is ˜25 nM. To each well of a white ProxiPlus 384 well-plate, 30 nL of compound (1% DMSO in final assay volume of 3 μL) was dispensed, followed by the addition of 2 μL of 1×assay buffer (25 mM Hepes 7.3, 20 mM MgCl2, 50 mM NaCl, 1 mM DTT, 0.005% Tween20, and 0.02% BSA) containing 37.5 nM of GST-RIPK1 (recombinant GST-RIPK1 kinase domain (residues 1-327) enzyme produced from baculovirus-transfected Sf21 cells: MW=62 kDa). Plates were placed in an ambient temperature humidified chamber for a 30-minute pre-incubation with compound. Subsequently, each reaction was initiated by the addition of 1 μL 1×assay buffer containing 900 μM ATP and […] dephosphorylated-MBP substrate. The final reaction in each well of 3 μL consists of 25 nM of GST-RIPK1, 300 μM ATP, and 3 μM dephosphorylated-MBP. Kinase reactions were allowed to proceed for 150 minutes prior to adding ADP-Glo reagents per Promega's outlined kit protocol. Dose-response curves were generated by plotting percent effect (% product conversion; Y-axis) vs. Log10 compound concentrations (X-axis). EC50 values were calculated using a non-linear regression, four-parameters sigmoidal dose-response model.
# Sequence of RIPK1 (recombinant GST-RIPK1 kinase domain, residues 1-327) (Q13546 1-327): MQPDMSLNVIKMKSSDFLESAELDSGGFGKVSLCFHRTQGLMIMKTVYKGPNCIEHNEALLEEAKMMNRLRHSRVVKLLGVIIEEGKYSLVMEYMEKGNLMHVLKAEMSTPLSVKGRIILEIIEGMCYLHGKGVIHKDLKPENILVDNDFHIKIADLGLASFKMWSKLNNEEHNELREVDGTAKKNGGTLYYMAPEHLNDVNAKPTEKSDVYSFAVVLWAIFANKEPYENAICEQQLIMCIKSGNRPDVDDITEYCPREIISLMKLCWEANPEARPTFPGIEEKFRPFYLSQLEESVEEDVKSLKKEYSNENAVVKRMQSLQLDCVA
row,SMILES,EC50
1,"N#Cc1ccc(N2CCC3(CC2)OC2CCC(c4cnccn4)N2C3=O)n2ncnc12 (stereo not drawn) [Example 4.141, 5-[3′-oxo-5′-(pyrazin-2-yl)tetrahydro-1H,3′H-spiro[piperidine-4,2′-pyrrolo[2,1-b] [1,3]oxazol]-1-yl][1,2,4]triazolo[1,5-a] pyridine-8-carbonitrile]",< 0.025 µM
2,"N#Cc1ccc(C(=O)N2CCC3(CC2)O[C@@H]2CC[C@@H](c4cc(F)cc(F)c4)N2C3=O)cc1 [Example 5.21, 4-((5′S,7a′R)-5′-(3,5-difluorophenyl)-3′-oxo-tetrahydro-3′H-spiro [piperidine-4,2′-pyrrolo-[2,1-b]oxazole]-1-carbon-yl)benzonitrile]",0.342 µM
3,"O=C1N2[C@@H](CC[C@H]2c2ccccc2)OC12CCN(c1ccc(-c3nc4ccccc4[nH]3)cn1)CC2 [Example 4.166, (5′S,7a′R)-1-[5-(1H-benzimidazol-2-yl)pyridin-2-yl]-5′-phenyltetrahydro-3′H-spiro[piperidine-4,2′-pyrrolo[2,1-b] [1,3]oxazol]-3′-one]",0.0564 µM
4,"O=C1N2[C@@H](CC[C@H]2c2ccccc2F)OC12CN(c1ccnc(-c3ccc(F)cc3)c1)C2 [Example 4.139, (5′S,7a′R)-5′-(2-fluorophenyl)-1-[2-(4-fluorophenyl)pyridin-4-yl]tetrahydro-3′H-spiro[azetidine-3,2′-pyrrolo[2,1-b] [1,3]oxazol]-3′-one]",< 0.025 µM
5,"CSc1cc(N2CCC3(CC2)O[C@@H]2CC[C@@H](c4ccccc4)N2C3=O)ncn1 [Example 4.27, (5′S,7a′R)-1-[6-(methylsulfanyl)pyrimidin-4-yl]-5′-phenyltetrahydro-3′H-spiro[piperidine-4,2′-pyrrolo[2,1-b] [1,3]oxazol]-3′-one]",0.018 µM
6,"N#Cc1cc(N2CC3(C2)O[C@@H]2CC[C@@H](c4cc(F)cc(F)c4)N2C3=O)ncn1 [Example 4.118, 6-((5′S,7a′R)-5′-(3,5-difluorophenyl)-3′-oxotetrahydro-3′H-spiro[azetidine-3,2′-pyrrolo[2,1-b]oxazol]-1-yl)pyrimidine-4-carbonitrile]",0.228 µM
7,"N#Cc1cc(N2CCC3(CC2)O[C@@H]2CC[C@@H](c4ccccc4)N2C3=O)ccn1 [Example 4.31, 4-[(5′S,7a′R)-3′-oxo-5′-phenyltetrahydro-1H,3′H-spiro[piperidine-4,2′-pyrrolo[2,1-b] [1,3]oxazol]-1-yl]pyridine-2-carbonitrile]",< 0.025 µM
8,"O=C(c1ccccc1)N1CCC2(CC1)SC1CC[C@H](c3cc(F)cc(F)c3)N1C2=O (stereo partly drawn) [Example 1.21, (5′R)-1-benzoyl-5′-(3,5-difluorophenyl)tetrahydro-3′H-spiro[piperidine-4,2′-pyrrolo[2,1-b]thiazol]-3′-one]",0.501 µM
9,"Cc1nc(N2CCC3(CC2)O[C@@H]2CC[C@@H](c4ccccc4F)N2C3=O)ccc1C#N [Example 4.105, 6-((5′S,7a′R)-5′-(2-fluorophenyl)-3′-oxotetrahydro-3′H-spiro[piperidine-4,2′-pyrrolo[2,1-b]oxazol]-1-yl)-2-methylnicotinonitrile]",< 0.025 µM
10,"COc1nc(N2CCC3(CC2)O[C@@H]2CC[C@@H](c4cc(F)cc(F)c4)N2C3=O)ncc1F [Example 4.21, (5′S,7a′R)-5′-(3,5-difluorophenyl)-1-(5-fluoro-4-methoxypyrimidin-2-yl)tetrahydro-3′H-spiro[piperidine-4,2′-pyrrolo[2,1-b] [1,3]oxazol]-3′-one]",< 0.025 µM
11,"COC(=O)c1cnc(N2CCC3(CC2)O[C@@H]2CC[C@@H](c4ccccc4)N2C3=O)cc1OC [Example 4.210, methyl 4-methoxy-6-[(5′S,7a′R)-3′-oxo-5′-phenyltetrahydro-1H,3′H-spiro[piperidine-4,2′-pyrrolo[2,1-b] [1,3]oxazol]-1-yl]pyridine-3-carboxylate]",0.076 µM
12,"Cc1ncc([C@@H]2CC[C@H]3OC4(CCN(C(=O)c5ccccc5)CC4F)C(=O)N32)cc1F (stereo partly drawn) [Example 2.9, (5′S,7a′R)-1-(benzenecarbonyl)-3-fluoro-5′-(5-fluoro-6-methylpyridin-3-yl)tetrahydro-3′H-spiro[piperidine-4,2′-pyrrolo[2,1-b][1,3]oxazol]-3′-one]",0.106 µM

# The remaining lines, values ahead:
row,EC50,SMILES
1,< 0.025 µM,"O=C1N2[C@@H](CC[C@H]2c2cc(F)cc(F)c2)OC12CCN(c1ccnn3ccnc13)CC2 [Example 13.3, (5′S,7a′R)-5′-(3,5-difluorophenyl)-1-(imidazo[1,2-b]pyridazin-8-yl)tetrahydro-3′H-spiro[piperidine-4,2′-pyrrolo[2,1-b]oxazol]-3′-one, TFA salt]"
2,0.76 µM,"Cc1cncc(C(=O)N2CCC3(CC2)O[C@@H]2CC[C@@H](c4cc(F)cc(F)c4)N2C3=O)n1 [Example 6.4, (5′S,7a′R)-5′-(3,5-difluorophenyl)-1-(6-methylpyrazine-2-carbonyl)tetrahydro-3′H-spiro[piperidine-4,2′-pyrrolo[2,1-b] [1,3]oxazol]-3′-one]"
3,0.0268 µM,"O=C1N2[C@@H](CC[C@H]2c2ccccc2)OC12CCN(c1cccc3ncnn13)CC2 [Example 13.1, (5′S,7a′R)-1-([1,2,4]Triazolo[1,5-a]pyridin-5-yl)-5′-phenyltetrahydro-3′H-spiro[piperidine-4,2′-pyrrolo[2,1-b]oxazol]-3′-one, TFA]"
4,< 0.025 µM,"O=C1N2[C@@H](CC[C@H]2c2ccccc2)OC12CCN(c1ccc(-c3cc4n(n3)CCC4)c3ncnn13)CC2 [Example 21.18, (5′S,7a′R)-1-[8-(5,6-dihydro-4H-pyrrolo[1,2-b]pyrazol-2-yl)[1,2,4]triazolo[1,5-a]pyridin-5-yl]-5′-phenyltetrahydro-3′H-spiro[piperidine-4,2′-pyrrolo[2,1-b][l,3]oxazol]-3′-one]"
5,0.136 µM,O=C(c1ccccc1)N1CCC2(CC1)O[C@@H]1[C@@H](O)C[C@@H](c3ccccc3)N1C2=O [Example 6.136]
6,< 0.025 µM,"O=C1N2[C@@H](CC[C@H]2c2cc(F)cc(F)c2)OC12CCN(c1ccc(F)c3ccnn13)CC2 [Example 16.1, (5′S,7a′R)-5′-(3,5-difluorophenyl)-1-(4-fluoropyrazolo[1,5-a]pyridin-7-yl)tetrahydro-3′H-spiro[piperidine-4,2′-pyrrolo[2,1-b]oxazol]-3′-one, TFA salt]"
7,0.196 µM,"N#Cc1cc([C@@H]2CC[C@H]3OC4(CCN(C(=O)c5ccccc5)CC4)C(=O)N32)ccc1F [Example 17.4, 5-((5′S,7a′R)-1-benzoyl-3′-oxotetrahydro-3′H-spiro[piperidine-4,2′-pyrrolo[2,1-b]oxazol]-5′-yl)-2-fluorobenzonitrile]"
8,< 0.025 µM,"O=C(c1ccc2nscc2c1)N1CCC2(CC1)O[C@@H]1CC[C@@H](c3cc(F)cc(F)c3)N1C2=O [Example 6.42, (5′S,7a′R)-1-(2,1-benzothiazole-5-carbonyl)-5′-(3,5-difluorophenyl)tetra-hydro-3′H-spiro [piperidine-4,2′-pyrrolo[2,1-b][1,3]oxazol]-3′-one]"
9,0.0368 µM,"O=C1N2[C@@H](CC[C@H]2c2cc(F)cc(F)c2)OC12CCN(c1nccn3cccc13)CC2 [Example 13.10, (5′S,7a′R)-5′-(3,5-difluorophenyl)-1-(pyrrolo[1,2-a]pyrazin-1-yl)tetrahydro-3′H-spiro[piperidine-4,2′-pyrrolo[2,1-b]oxazol]-3′-one]"
